Reference: publication PMC11357992, “Non-invasive mapping of systemic neutrophil dynamics upon cardiovascular injury” (Nature Cardiovascular Research, 2023)
Values joined by “and” are separate entries in the source; they are usually repeats but may differ in a detail not shown here. Equal entries are not always repeated. Where no end group is shown, it is not given here. carboxyfluorescein = N-terminal fluorescence label (CF)

Assays:
[1] = tested on: human lymphocytes, monocytes or neutrophils; experiment: Uptake of hNPPFCs/ConPFCs by human blood immune cells, flow cytometry; format: cell-based; conditions: for uptake by lymphocytes, raw data (flow cytometry): human lymphocytes; for uptake by lymphocytes, raw data (flow cytometry) / uptake by monocytes, raw data (flow cytometry): single samples #1-#4; for uptake by monocytes, raw data (flow cytometry): human monocytes
Method: Blood was collected from the vena brachialis, and erythrocytes were lysed as described above. After 10 min of incubation, samples were centrifuged at 350g for 10 min at 20 °C. For isolation of a purified neutrophil fraction, density gradient centrifugation was performed. Five milliliters of Ficoll 1.077 (Sigma-Aldrich) was layered on 5 ml Ficoll 1.119 (Sigma-Aldrich), and 20 ml of whole blood diluted 1:2 with PBS was carefully layered on the Ficoll 1.077. Samples were centrifuged at 350g for 20 min with low acceleration and brake. The neutrophil layer was isolated by careful aspiration and washed with PBS. Isolated cells were resuspended in MACS buffer.
Human immune cells were discriminated by staining for CD45 (BioLegend, clone HI30), CD11b (BD Biosciences, clone ICRF44), CD14 (BioLegend, clone M5E2) and CD16 (BD Biosciences, clone 3G8) (lymphocytes, CD45^+CD11b^−CD16^−; classical monocytes, CD45^+CD11b^+CD14^++CD16^−; non-classical monocytes, CD45^+CD11b^+CD14^+CD16^++; neutrophils, CD45^+CD11b^+CD16^+). Murine immune cells were discriminated by staining for CD45 (BD Biosciences, clone 30-F11), CD11b (BioLegend, clone M1/70), Ly6G (BD Biosciences, clone 1A8), Ly6C (BioLegend, clone HK1.4) and F4/80 (BioLegend, clone BM8) (lymphocytes, CD45^+CD11b^−Ly6G^−; classical monocytes, CD45^+CD11b^+Ly6G^−Ly6C^hi; non-classical monocytes, CD45^+CD11b^+Ly6G^−Ly6C^lo; neutrophils, CD45^+CD11b^+Ly6G^+; eosinophils, CD45^+CD11b^+Ly6G^+SSC^hiFSC^lo). Both human and murine cells were stained for 20 min at 4 °C, followed by washing with 200 µl MACS buffer.
If not mentioned otherwise, neutrophil-specific peptide or Con (both at 1 µg ml^−1) were incubated for 20 min at 4 °C, while ^NPPFCs or ^ConPFCs were incubated at a concentration of 10 µl ml^−1 for the indicated period of time, followed by two washing steps with 200 µl MACS buffer.
A total of 1 × 10^6 cells were incubated with 10 µl of the emulsion over a period of 80 min at 37 °C. At distinct time points, 50 µl of the samples were transferred into 2 ml of ice-cold MACS buffer and analyzed for rhodamine fluorescence by flow cytometry.
(§1) Extended Data Fig. 8 Physicochemical properties and cellular uptake of ^hNPPFCs. a, Cellular uptake of ^hNPPFCs by human monocyte subsets and neutrophils: Human immune cells isolated from the blood of healthy volunteers were incubated with ^hNPPFCs. Subsequently, cells were stained with CD11b, CD14 and CD16 to differentiate between neutrophils (red), classical monocytes (gray) and non-classical monocytes (blue) and the cells were analyzed by flow cytometry. The cellular uptake of ^hNPPFCs was determined under unstimulated conditions (top) and after treatment with 1 µg/ml LPS (bottom). b, Physicochemical properties of the generated nanotracers: Characterization of size, size distribution and ζ potential of ^MalPFCs and targeting PFCs (^hNPPFCs, ^ConPFCs) by dynamic light scattering (DLS). The rhodamine fluorescence signal of the PCS was determined by IVIS imaging and the ^19F content by ^19F MRI. c-e, Cryo transmission electron microscopy of the generated nanotracers: c, Cryo transmission electron microscopy (cryo-TEM) of ^hNPPFCs and ^ConPFCs. Graphs: The diameter of the PFCs was determined manually from three images categorized into 25 nm groups. […] Data are derived from three images for ^hNPPFCs and ^ConPFCs each. d, Box plot (box and whiskers; min to max) of the diameter of ^ConPFCs/^hNPPFCs calculated from cryo-TEM images. e, Relative amount of liposomes (%) in individual cryo-TEM images. The number of PFCs and liposomes was manually determined (n = 4/5 images). Red arrows in the cryo-TEM images indicate liposomes. Data are mean values ± SD of n = 5-6 (a), n = 3-6 (b), n = 3 (c), n = 3 (d) and n = 6 (e) independent experiments; *** = p < 0.001, verified by one-way ANOVA (a). Source data

[2] = Dynamic light scattering and ζ potential of PFCs; format: physicochemical; conditions: panel B raw data, single replicates #1-#6
Method: Dynamic light scattering and the ζ potential were measured as described previously[9],[32] at 25 °C using a Nanotrac Wave II analyzer (Microtrac) driven by Microtrac FLEX Software 3.4.
as §1

**Q.** For “hNPPFCs: PEGylated rhodamine-labeled perfluorocarbon nanoemulsion coupled with human neutrophil-specific peptide hNP (carboxyfluorescein-DLVTSKLQVGGGC; also: C-terminal Cys coupled via maleimide-PEG2000-DSPE to rhodamine-labelled perfluorocarbon nanoemulsion)”, which “uptake by neutrophils, Ctrl - hNPPFCs, raw data” value ([1]; Ctrl donors, time 0, single samples #1-#8) is on record?
**A.** Its value is 68.6 and 64 and 91.8 and 102 and 91.2 and 87.9 and 78.2 and 76.6.

**Q.** And the “uptake by human monocytes and their subtypes, flow cytometry” value ([1]; also under LPS stimulation (1 µg/ml))?
**A.** Its value is “only minor uptake”.

**Q.** What about the “uptake by lymphocytes, raw data (flow cytometry)” value (from here on “uptake by lymphocytes, raw data”) ([1]; incubation 0 min) of the same substance?
**A.** Its value is 14.8 and 22.7 and 17.1 and 13.

**Q.** What about the “uptake by lymphocytes, raw data” value ([1]; incubation 40 min) of the same substance?
**A.** Its value is 125 and 107 and 139 and 206.

**Q.** And the “uptake by lymphocytes, raw data” value ([1]; incubation 80 min)?
**A.** The value was 149 and 177 and 157 and 227.

**Q.** What about the “uptake by monocytes, raw data (flow cytometry)” value (from here on “uptake by monocytes, raw data”) ([1]; incubation 0 min) of the same substance?
**A.** The value was 41.4 and 45.1 and 42.3 and 29.9.

**Q.** And the “uptake by monocytes, raw data” value ([1]; incubation 10 min)?
**A.** Its value is 285 and 252 and 274 and 459.

**Q.** What about the “uptake by monocytes, raw data” value ([1]; incubation 20 min) of the same substance?
**A.** Its value is 318 and 557 and 425 and 621.

**Q.** And the “uptake by monocytes, raw data” value ([1]; incubation 40 min)?
**A.** Its value is 616 and 798 and 629 and 741.

**Q.** And the “uptake by monocytes, raw data” value ([1]; incubation 80 min)?
**A.** The value was 938 and 1088 and 771 and 1126.

**Q.** And the “uptake by neutrophils, raw data (flow cytometry)” value ([1]; human neutrophils, incubation 0 min, single samples #1-#9)?
**A.** The value was 76.6 and 91.8 and 102 and 91.2 and 87.9 and 78.2.

**Q.** What about the “binding to human lymphocytes, flow cytometry” value ([1]; immune cells from human blood) of the same substance?
**A.** Its value is “no binding to lymphocytes”.

**Q.** What about the “binding to human neutrophils, flow cytometry” value ([1]; immune cells from human blood) of the same substance?
**A.** The value was “avidly bound to neutrophils”.

**Q.** And the “human neutrophils labeled by hNPPFCs” value ([1]; of all human neutrophils in the authors' samples (CD177 not present on all))?
**A.** The value was 50–60%.

**Q.** What about the PDI ([2]; dynamic light scattering) of the same substance?
**A.** The PDI was 0.08 and 0.07.

**Q.** And the Size ([2]; dynamic light scattering)?
**A.** Its Size is 91.7 and 97.8 and 100.7 and 101.3 and 102.8 and 95.3.

**Q.** What about the zeta potential [2] of the same substance?
**A.** The zeta potential was -30.64 and -34.35 and -35.76 and -32.06 and -35.94 and -33.07.
